Data published in patent US8518373B2, “Ionic and non-ionic radiographic contrast agents for use in combined X-ray and nuclear magnetic resonance diagnostics” (priority 2001, dated 2013).
Where two headings read alike, the source gives them in different places.

How the values were obtained:
[1] = cited from earlier work
[2] = cited from earlier work; remark: listed apart in the source
[3] = rabbit, in vivo, cited from earlier work
[4] = dog, in vivo; cited from earlier work
[5] = residual water signal after irradiating the amido protons, effect of radiofrequency field intensity, 200 mM Iopamidol; conditions: for % residual signal: 200 mM, pH 6.29, 2.1 T, 39° C., rf field at 9.4 ppm
Procedure: A 200 Mm Iopamidol solution at pH=6.29 was investigated at 2.1 T magnetic field intensity and at a temperature of 39° C. (JEOL EX-90 spectrometer). Considering 100 the area of the water signal with irradiation at −9.4 ppm, its decrease (expressed as % residual signal) was evaluated in the presence of a rf field tuned at 9.4 ppm (signal of the amido protons).

[6] = residual water signal after irradiating the amido proton signal, effect of temperature, 200 mM Iopamidol; conditions: pH 6.74, 2.1 T, irradiation at 9.4 ppm, attenuation 300 dB
Procedure: A 200 mM Iopamidol solution at pH=6.74 was investigated at 2.1 T magnetic field intensity (JEOL EX-90 spectrometer). After irradiating the amido proton signal at 9.4 ppm, with attenuation of 300 dB, the area under the water signal was measured. Considering 100 the area of the water signal with irradiation at −9.4 ppm, a drastic reduction is observed following irradiation of the amido protons. The effect increases as temperature increase so that: […]

[7] = Z-spectra and Saturation transfer (ST) profiles of aqueous solutions in MT imaging; conditions: 7 T, pH 7.4, 312 K, 30 mM (Gd-DTPA 1 mM)
Procedure: The Magnetization Transfer or, more precisely, the amount of saturation transfer (ST) registered in a MT based MRI procedure following irradiation of the mobile proton(s), is conveniently quantified as ST % according to the following equation (2) ST %=100×(1−Ms/M0) (2)
In a first series, tests were conducted at physiological pH and temperature. A second series of tests were conducted at acidic pH.
In the first series of tests, Z-spectra and corresponding Saturation transfer (ST) profiles were measured at 7 T, pH 7.4 and 312 K, for aqueous solutions of iopamidol (30 mM), L-amino acids alanine, glutamine and lysine (each 30 mM), Gd-DTPA (1 mM) and Iopamidol (30 mM).

Molecule: O=C1NCCN1 [2-Imidazolidinone]
- LD50 intraperitoneal mouse ([1]; intraperitoneal, mouse): 500 mg/kg

Molecule: O=C1CC(=O)NC(=O)N1 [Barbituric Acid]
- LD50 orally in male rats ([2]; oral, male rats): > 5000 mg/kg

Molecule: N=C(N)N [Guanidine]
- LD orally in rabbits ([3]; po): 500 mg/kg

Molecule: C[C@H](O)C(=O)Nc1c(I)c(C(=O)NC(CO)CO)c(I)c(C(=O)NC(CO)CO)c1I [Iopamidol]
- LD50 in dogs [4]: 34700 mg/kg
- reduction of the signal from water in MRI saturation transfer ([5]; 2.1 T magnetic field): 80%
- % residual signal ([5]; attenuation 300 dB): 15%
- % residual signal ([5]; attenuation 400 dB): 40%
- LD50 in rabbits [3]: 19600 mg/kg
- LD50 in rats ([2]; rat, in vivo): 28.2 g/kg
- % residual signal ([6]; 15° C.): 39%
- % residual signal ([6]; 25° C.): 30%
- % residual signal ([6]; 39° C.): 24%
- LD50 in mice ([1]; mouse, in vivo): 44.5 g/kg

Molecule: N=C(N)NCCC[C@H](N)C(=O)O [L-Arginine]
- LD50 intravenous mouse ([1]; mouse, in vivo, iv): 2030 mg/kg

Molecule: C[C@H](N)C(=O)O [L-alanine]
- Saturation Transfer Value pH = 7.4 [7]: 0
- Saturation Transfer Value pH = 7.4 ([7]; listed as alanine): failed to provide any detectable signals

Molecule: NCCCC[C@H](N)C(=O)O [L-lysine]
- Saturation Transfer Value pH = 7.4 [7]: 0
- Saturation Transfer Value pH = 7.4 ([7]; listed as lysine): failed to provide any detectable signals

Molecule: CC(=O)Nc1c(I)c(C(=O)N[C@H]2C(O)O[C@H](CO)[C@@H](O)[C@@H]2O)c(I)c(N(C)C(C)=O)c1I (stereo partly drawn) [Metrizamide]
- LD50 i.v. in mice ([1]; i.v., mice (Aspelin)): 17300 mg/kg
- LD50 i.v. in mice ([1]; i.v., mice (Salvenson)): 18600 mg/kg
- LD50 i.v. in mice ([1]; i.v., mice (Sovak)): 11500 mg/kg
- LD50 i.v. in mice ([1]; i.v., mice (Torsten)): 15000 mg/kg

Molecule: O=C(O)C1CCCCN1 (stereo not drawn) [Pipecolinic. Acid]
- LD50 intravenous mouse ([1]; intravenous, mouse): 2200 mg/kg

Molecule: CC(=O)Nc1c(I)c(NC(C)=O)c(I)c(C(=O)[O-])c1I.[Na+] [Sodium diatrizoate]
- LD50 i.v. in rats ([2]; i.v., rats (Langecker)): 14700 mg/kg

Molecule: Cc1cn([C@H]2C[C@H](O)[C@@H](CO)O2)c(=O)[nH]c1=O [Thymidine]
- LD50 intraperitoneal mouse ([1]; mouse, in vivo, ip): 2512 mg/kg

Molecule: Iopromide
- LD50 in rats ([2]; rats, i.v.): 11.4 g iodine/kg body weight
- LD50 in mice ([1]; mice, i.v.): 16.5 g iodine/kg body weight
